Test results: patent US5688774A (priority 1995, dated 1997)
Read-outs that look alike come from different tables or passages of the source.

Columns and labels:
[1] = biological target: T1, rat A3 adenosine receptors (Rattus norvegicus, UniProt P28647); test: Inhibition of adenylate cyclase in CHO cells stably transfected with rat A3 adenosine receptors; format: cell-based; design: key to Effect on IB-MECA dose-resp. curve: no effect; details: for Ratio Conc./Ki (A3): test concentration divided by Ki (A3)
T1 construct: expressed in transfected cells; host or cells: CHO cells, stably transfected
T1 sequence (P28647 1-320): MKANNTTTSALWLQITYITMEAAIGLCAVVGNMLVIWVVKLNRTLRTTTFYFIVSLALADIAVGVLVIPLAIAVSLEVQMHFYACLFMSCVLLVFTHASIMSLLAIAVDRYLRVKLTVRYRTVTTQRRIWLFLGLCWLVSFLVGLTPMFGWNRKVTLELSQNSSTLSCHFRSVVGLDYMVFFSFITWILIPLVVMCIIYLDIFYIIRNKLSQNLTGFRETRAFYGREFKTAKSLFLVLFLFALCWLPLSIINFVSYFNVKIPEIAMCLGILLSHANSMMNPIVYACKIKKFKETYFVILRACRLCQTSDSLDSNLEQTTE

A3 receptors [2] = biological target: T2, A3 receptors (Rattus norvegicus, UniProt P28647); test: A3 receptor binding selectivity; details: in words
T2 sequence (P28647 1-320): T1 sequence (P28647 1-320)

rat brain A1 receptor = biological target: T3, rat brain A1 receptor (Rattus norvegicus, UniProt P25099); test: Displacement of [^3 H]PIA binding at A1 receptors
T3 construct: Rat cerebral cortical and striatal membranes were prepared; from tissue; host or cells: rat brain membranes (cerebral cortical)
T3 sequence (P25099 1-326): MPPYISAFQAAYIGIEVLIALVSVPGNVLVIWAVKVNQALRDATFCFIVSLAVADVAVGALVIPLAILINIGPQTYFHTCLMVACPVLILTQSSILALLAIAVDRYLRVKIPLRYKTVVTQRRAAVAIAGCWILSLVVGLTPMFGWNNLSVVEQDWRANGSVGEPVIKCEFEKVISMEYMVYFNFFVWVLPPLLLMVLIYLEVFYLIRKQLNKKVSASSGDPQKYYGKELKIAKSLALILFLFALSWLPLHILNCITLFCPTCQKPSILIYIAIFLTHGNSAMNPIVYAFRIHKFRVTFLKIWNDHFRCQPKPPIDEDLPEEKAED

rat brain A2a receptor = biological target: T4, rat brain A2a receptor (Rattus norvegicus, UniProt P30543); test: Displacement of [^3 H]CGS 21680 binding at A2a receptors
T4 construct: A2 receptors from rat striatal membranes; from tissue; host or cells: rat striatal membranes
T4 sequence (P30543 whole entry): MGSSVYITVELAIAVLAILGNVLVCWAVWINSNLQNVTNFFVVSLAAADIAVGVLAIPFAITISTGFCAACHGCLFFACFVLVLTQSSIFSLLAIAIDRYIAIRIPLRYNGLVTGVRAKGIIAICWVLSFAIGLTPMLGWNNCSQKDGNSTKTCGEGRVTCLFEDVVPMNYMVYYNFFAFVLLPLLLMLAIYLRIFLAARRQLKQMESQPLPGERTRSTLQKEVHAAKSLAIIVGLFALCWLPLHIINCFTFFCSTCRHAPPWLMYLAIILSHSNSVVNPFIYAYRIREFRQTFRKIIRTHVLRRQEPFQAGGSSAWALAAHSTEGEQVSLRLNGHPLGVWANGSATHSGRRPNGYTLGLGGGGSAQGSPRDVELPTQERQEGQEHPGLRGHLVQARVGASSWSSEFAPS
Experimental: Rat cerebral cortical and striatal membranes were prepared (Jacobson et al., J. Med. Chem., 35, 4143-4149 (1992)) and treated with ADA for 30 min at 37° C. prior to storage at -70° C.
The stock solutions were diluted with DMSO to a concentration of ≤0.1 mM prior to addition to the aqueous medium. The final concentration of DMSO in the assay medium was generally 2%.
At least six different concentrations spanning three orders of magnitude, adjusted appropriately for the IC50 of each compound, were used. […]. Pharmacol., 22, 3099-3108 (1973)).

A3 receptors [3] = biological target: T2, A3 receptors; details: in words; Zhou et al.; cited from earlier work
A3 receptor = details: coadministered with a xanthine antagonist that does not act at A3 receptors; cited from earlier work
[4] = system: ischemic model in gerbils; details: cited from earlier work
[5] = system: NMDA-induced seizures in mice; details: cited from earlier work
[6] = [^3 H]PIA, rat brain membranes, Ki ± S.E.M., n = 3-6
[7] = [^3 H]CGS 21680, rat brain membranes, Ki ± S.E.M., n = 3-6
[8] = CHO, 1 μM forskolin, average ± S.E.M. for 2-3 determinations or a single value, read-out: % Inhib. (adenylate cyclase)

| Structure (SMILES) | Ki (rat brain A1 receptor; [6]) [nM] | Ki (rat brain A2a receptor; [7]) [nM] | inhibition at 100 µM [1, 8] [%] | Ratio Conc./Ki (A3) [1] | further results |
| --- | --- | --- | --- | --- | --- |
| CCNC(=O)[C@H]1O[C@@H](n2cnc3c(NCc4ccccc4)ncnc32)[C@H](O)[C@@H]1O [N^6-benzyladenosine-5'-N-ethyluronamide, reference compound] | – | – | – | – | agonist efficacy in inhibition of adenylate cyclase ([1]; in words, via rat A3 receptors): full agonists; selectivity for rat A3 receptors vs. either A1 or A2a receptors in binding assays (A3 receptors [2]): only one order of magnitude selective |
| CNC(=O)[C@H]1O[C@@H](n2cnc3c(NCc4cccc(I)c4)nc(Cl)nc32)[C@@H]2OC(=S)O[C@@H]21 [Compound 46, 2-Chloro-9-(2',3'-O-Thiocarbonyl-β-D-5-Methyl-Ribofuronamido)-N^6-(3-Iodobenzyl)adenine] | 179 ± 24 | 871 ± 219 | 54.5 ± 8.1 | 8200 | – |
| CNC(=O)[C@@H]1C[C@@H](O)[C@H](n2cnc3c(NCc4cccc(I)c4)nc(Cl)nc32)O1 [Compound 41b, 2-Chloro-9-(3-Deoxy-β-D-5-Methyl-Ribofuronamido)-N^6-(3-Iodobenzyl)adenine] | 1030 ± 150 | 4660 ± 740 | 49.2 ± 3.7 | 3000 | – |
| Nc1ccc(CCNc2ncnc3c2ncn3[C@@H]2O[C@H](CO)[C@@H](O)[C@H]2O)cc1 [APNEA, N^6-2-(4-aminophenyl)ethyladenosine] | – | – | – | – | activity at the A3 receptor (A3 receptors [3]): agonists for the A3 receptor; cardioprotective potential of A3 receptor activation (A3 receptor): has been demonstrated |
| OC[C@H]1O[C@@H](n2cnc3c(NCc4cccc(I)c4)nc(Cl)nc32)[C@H](O)[C@@H]1O [2-chloro-N^6-(3-iodobenzyl)-adenosine] | – | – | – | – | tolerance of 2-substitution at A3 receptors (A3 receptors [2]): well-tolerated |
| CNC(=O)[C@@H]1C[C@H](N=[N+]=[N-])[C@H](n2cnc3c(NCc4cccc(I)c4)nc(Cl)nc32)O1 [Compound 42, 2-Chloro-9-(2'-Azido-2',3'-Dideoxy-β-D-5'-Methyl-Arabinofuronamido)-N^6 (3-Iodobenzyladenine)] | 401 ± 41 | 28100 ± 3200 | 27.8 | 17 | – |
| O[C@@H]1[C@H](O)CO[C@H]1n1cnc2c(NCc3cccc(I)c3)nc(Cl)nc21 [Compound 28, 2-Chloro-9-(b-D-erythrofuranoside)-N^6-(3-iodobenzyl)adenine] | – | – | 42.2 | 360 | Ki (rat brain A1 receptor): 811 ± 123 nM; Ki (rat brain A2a receptor): 2890 ± 1000 nM |
| CSc1nc(NCc2cccc(I)c2)c2ncn(C)c2n1 [Compound 16, N^6-(3-Iodobenzyl)-9-Methyl-2-Methylthioadenine] | 1890 ± 590 | 1640 ± 390 | 19.5 | 330 | Effect on IB-MECA dose-resp. curve ([1]; 1 μM forskolin): c |
| CNC(=O)[C@@H]1C[C@@H](OC(C)=O)[C@H](n2cnc3c(NCc4cccc(I)c4)nc(Cl)nc32)O1 [Compound 37, 9-(2-Acetyl-3-Deoxy-β-D-5-Methyl-Ribofuronamido)-2-Chloro -N^6-(3-Iodobenzyl)adenine] | 778 ± 44 | 15900 ± 3700 | – | 320 | inhibition at 20 µM ([1]; CHO, 20 μM, 1 μM forskolin, average ± S.E.M. for 2-3 determinations or a single value, read-out: % Inhib. (adenylate cyclase)): 12.7 ± 1% |
| CCNC(=O)[C@H]1O[C@@H](n2cnc3c(N)nc(NCCc4ccc(CCC(=O)NCCN)cc4)nc32)[C@H](O)[C@@H]1O [APEC] | – | – | – | – | tolerance of 2-substitution at A3 receptors (A3 receptors [2]): well-tolerated |
| CNC(=O)[C@H]1O[C@@H](n2cnc3c(NCc4cccc(I)c4)ncnc32)[C@H](O)[C@@H]1O [IB-MECA, N^6-(3-iodobenzyl)adenosine-5'-N-methyluronamide] | – | – | – | – | cerebroprotective effects, ischemic model [4]: cerebroprotective effects; cerebroprotective effects, NMDA-induced seizures [5]: cerebroprotective effects |
| CNC(=O)[C@@H]1CC[C@H](n2cnc3c(NCc4ccccc4)nc(Cl)nc32)O1 [Compound 40, 2-Chloro-9-(2,3-Dideoxy-β-D-5-Methyl-Ribofuronamido)-N^6 -Benzyladenine] | 11500 ± 1300 | 220000 ± 65000 | – | 1.3 | Effect on IB-MECA dose-resp. curve ([1]; 1 μM forskolin): c; inhibition at 40 µM ([1]; CHO, 40 μM, 1 μM forskolin, average ± S.E.M. for 2-3 determinations or a single value, read-out: % Inhib. (adenylate cyclase)): 18.1 ± 8.7% |
